How the values were obtained:
Format in all cases: in vivo
Deroceras reticulatum [1] = test: Forced ingestion trial of Deroceras reticulatum using various strobilurin compounds (Example 2); settings: for slug mortality (in words): 0.5 mg a.i./slug
Experimental: (§1) Adult D. reticulatum were field-collected from an irrigated plot of mixed herbage and maintained in plastic boxes lined with moist, unbleached, absorbent paper and under controlled environmental conditions (12 hour photoperiod, 10° C., 90% RH). Slugs were fed ad. lib. on wheat grain and a mixture of fresh foliage for a period of up to, but not exceeding, one week prior to testing. Slugs were then starved for a period of 48 h before treatment.
(§2) Individual slugs were weighed and anaesthetized using CO2 for a period of 10-20 minutes. Test solutions were incorporated into a warm agar jelly (1.0% w/v) to reduce the risk of regurgitation. Twenty μl aliquots of warm agar mix was then injected into the buccal cavity of a single slug using a fine glass micro-syringe and gently eased into the slug crop. Individual slugs were then placed into labelled Petri dishes lined with moist, unbleached, absorbent paper. Following application of treatments, slugs were maintained under controlled environmental conditions (12 hr photoperiod, 10° C., 90% RH), and slug health recorded over the subsequent three days. Slug health was classified into one of four categories: • Healthy (showing no symptoms) • Affected (showing some symptoms of poisoning, excessive mucus production/deformity) • Moribund (severely affected/paralysed, unable to move in response to gentle prodding) • Dead
For each treatment, 20 slugs were injected. […] The results are shown in Table 3, presented as a percentage of the total number of slugs tested for each treatment.

Arion fasciatus [2] = test: Forced ingestion trial of azoxystrobin (FS formulation) against various slug species (Example 3); settings: 100FS formulation
Experimental: as §1, §2
(§3) The methods used in this trial were the same as those described in Example 2, except that the following slug species were collected and tested: Deroceras reticulatum, Anion distinctus, Anion fasciatus and Tandonia budapestensis
(§4) For each treatment, 20 slugs were injected. […] The results are shown in Table 5, presented as a percentage of the total number of slugs tested for each treatment.

Arion distinctus [3] = test: as above; settings: 100FS formulation
Experimental: as §1, §2, §3, §4

Tandonia budapestensis [4] = test: as above; settings: 100FS formulation
Experimental: as §1, §2, §3, §4

D. reticulatum = test: Tests to establish potential effect of surfactants on molluscicidal activity, forced ingestion (Example 6)
Experimental: as §1, §2
The methods used in this trial were the same as those described in Example 2. The treatments tested are listed in Table 10, and results are in Table 11, presented as a percentage of the total number of slugs tested for each treatment. For each treatment 20 slugs were tested. For ease of comparison, the concentrations of each treatment applied were equivalent to the amount of each component that would be applied in a treatment of Amistar® at a rate of 0.1 mg a.i./slug.

Deroceras reticulatum [5] = test: Forced ingestion study on D. reticulatum (Example 1); settings: for Number of slugs Affected / Number of slugs Dead / Number of slugs Healthy: of 20 slugs
Experimental: Forced ingestion studies were setup using the Field Slug, Deroceras reticulatum. A formulation containing the strobilurin azoxystrobin was injected directly into the gut of the slugs. Details of the formulation (Dynasty® 100FS) are: […]
Slugs were field-collected, and starved for 48 hours prior to forced ingestion studies. Individual slugs were weighed and anaesthetized using carbon dioxide for 10 to 20 minutes. Test solutions were incorporated into an agar jelly (1.0% w/v) to reduce the risk of regurgitation. For each slug, ten ul aliquots of warm agar mix were injected into the buccal cavity using a fine glass micro-syringe and gently eased into the slug crop. Individual slugs were then placed into labelled Petri dishes lined with moist, unbleached, absorbent paper. For each treatment, 20 slugs were injected. An untreated control of warm agar gel was injected for comparison purposes.
Treated slugs were maintained under controlled environmental conditions (12 hour photoperiod, 15° C., 90% relative humidity), and slug health assessments recorded over the three subsequent days. Slug health was classified into one of the following categories: • Healthy: showing no symptoms • Affected: showing some symptoms of poisoning, excessive mucus production/deformity • Dead

Arion fasciatus [6] = test: Forced ingestion trial of azoxystrobin (SC formulation) against various slug species (Example 4); settings: 250SC formulation
Experimental: as §1, §2, §3
(§5) For each treatment, at least 20 slugs were injected. […] The results are shown in Table 7, presented as a percentage of the total number of slugs tested for each treatment.

Arion distinctus [7] = test: as above; settings: 250SC formulation
Experimental: as §1, §2, §3, §5

Deroceras reticulatum [8] = test: as above; settings: 250SC formulation
Experimental: as §1, §2, §3, §5

Tandonia budapestensis [9] = test: as above; settings: 250SC formulation
Experimental: as §1, §2, §3, §5

Deroceras reticulatum [10] = test: Forced ingestion trial of azoxystrobin (FS formulation) and picoxystrobin against various slug species (Example 3)
Experimental: as §1
as §2, with “Dead […]” for “Dead”

[11] = 0.1 mg a.i./slug, 72 hours after forced ingestion
[12] = 0.0001 mg azoxystrobin/slug, 24 hours
[13] = 0.0001 mg azoxystrobin/slug, 48 hours
[14] = 0.0001 mg azoxystrobin/slug, 72 hours
[15] = 0.001 mg azoxystrobin/slug, 24 hours
[16] = 0.001 mg azoxystrobin/slug, 48 hours
[17] = 0.001 mg azoxystrobin/slug, 72 hours
[18] = 0.01 mg azoxystrobin/slug, 24 hours
[19] = 0.01 mg azoxystrobin/slug, 48 hours
[20] = 0.01 mg azoxystrobin/slug, 72 hours
[21] = 0.1 mg azoxystrobin/slug, 24 hours
[22] = 0.1 mg azoxystrobin/slug, 48 hours
[23] = 0.1 mg azoxystrobin/slug, 72 hours
[24] = 1 mg azoxystrobin/slug, 24 hours
[25] = 1 mg azoxystrobin/slug, 48 hours
[26] = 1 mg azoxystrobin/slug, 72 hours

## CON=C(C(=O)OC)c1ccccc1CON=C(C)c1cccc(C(F)(F)F)c1 [trifloxystrobin]
Deroceras reticulatum [1]
  slug mortality (in words): significant levels of slug mortality

## CO/N=C(/C1=NOCCO1)c1ccccc1Oc1ncnc(Oc2ccccc2Cl)c1F [fluoxastrobin]
Deroceras reticulatum [1]
  slug mortality (in words): significant levels of slug mortality

## CO/C=C(/C(=O)OC)c1ccccc1Oc1cc(Oc2ccccc2C#N)ncn1 [azoxystrobin]
Arion fasciatus [2]; Arion fasciatus
  efficacy against slug species (in words): effective against all three species
Arion fasciatus [2]; A. fasciatus
  concentration to kill approximately 99% of the population (probit analysis): 0.904 mg a.i./slug
Arion distinctus [3]; Arion distinctus
  efficacy against slug species (in words): effective against all three species
Arion distinctus [3]; A. distinctus
  concentration to kill approximately 99% of the population (probit analysis): 0.183 mg a.i./slug
Tandonia budapestensis [4]; Tandonia budapestensis
  efficacy against slug species (in words): effective against all three species
Tandonia budapestensis [4]; T. budapestensis
  concentration to kill approximately 99% of the population (probit analysis): 0.163 mg a.i./slug
Deroceras reticulatum [1]; Deroceras reticulatum, treatments 1 to 4 (Amistar 250SC)
  mean concentration that kills 99% of the population (probit analysis): 0.068 mg a.i./slug
Deroceras reticulatum [1]; treatments 1 to 4
  killing of slugs (in words): highly effective at killing slugs
D. reticulatum; [11]
  Affected %: 12.5%
  Dead or Moribund %: 42.5%
  Healthy %: 45%
D. reticulatum; azoxystrobin additionally present with surfactant/formulation (treatment 4)
  slug mortality: 100%
Deroceras reticulatum [5]; [12]
  Number of slugs Affected: 0
  Number of slugs Dead: 0
  Number of slugs Healthy: 20
Deroceras reticulatum [5]; [13]
  Number of slugs Affected: 0
  Number of slugs Dead: 0
  Number of slugs Healthy: 20
Deroceras reticulatum [5]; [14]
  Number of slugs Affected: 0
  Number of slugs Dead: 0
  Number of slugs Healthy: 20
Deroceras reticulatum [5]; [15]
  Number of slugs Affected: 4
  Number of slugs Dead: 0
  Number of slugs Healthy: 16
Deroceras reticulatum [5]; [16]
  Number of slugs Affected: 2
  Number of slugs Dead: 4
  Number of slugs Healthy: 14
Deroceras reticulatum [5]; [17]
  Number of slugs Affected: 2
  Number of slugs Dead: 4
  Number of slugs Healthy: 14
Deroceras reticulatum [5]; [18]
  Number of slugs Affected: 6
  Number of slugs Dead: 2
  Number of slugs Healthy: 12
Deroceras reticulatum [5]; [19]
  Number of slugs Affected: 6
  Number of slugs Dead: 6
  Number of slugs Healthy: 8
Deroceras reticulatum [5]; [20]
  Number of slugs Affected: 6
  Number of slugs Dead: 6
  Number of slugs Healthy: 8
Deroceras reticulatum [5]; [21]
  Number of slugs Affected: 2
  Number of slugs Dead: 16
  Number of slugs Healthy: 2
Deroceras reticulatum [5]; [22]
  Number of slugs Affected: 0
  Number of slugs Dead: 18
  Number of slugs Healthy: 2
Deroceras reticulatum [5]; [23]
  Number of slugs Affected: 0
  Number of slugs Dead: 18
  Number of slugs Healthy: 2
Deroceras reticulatum [5]; [24]
  Number of slugs Affected: 0
  Number of slugs Dead: 20
  Number of slugs Healthy: 0
Deroceras reticulatum [5]; [25]
  Number of slugs Affected: 0
  Number of slugs Dead: 20
  Number of slugs Healthy: 0
Deroceras reticulatum [5]; [26]
  Number of slugs Affected: 0
  Number of slugs Dead: 20
  Number of slugs Healthy: 0
Deroceras reticulatum [5]; efficacy increases with concentration and with time
  activity against D. reticulatum slugs (in words): active against D. reticulatum slugs
Arion fasciatus [6]
  efficacy against slug species (in words): effective against all four slug species tested
Arion distinctus [7]
  efficacy against slug species (in words): effective against all four slug species tested
Deroceras reticulatum [8]
  efficacy against slug species (in words): effective against all four slug species tested
Tandonia budapestensis [9]
  efficacy against slug species (in words): effective against all four slug species tested

## CO/C=C(/C(=O)OC)c1ccccc1COc1cccc(C(F)(F)F)n1 [picoxystrobin]
Deroceras reticulatum [10]; Deroceras reticulatum, treatments 1 to 4 (Acanto 250SC)
  mean concentration that kills 99% of the population (probit analysis): 0.198 mg a.i./slug
Deroceras reticulatum [10]; doses equivalent to 0.05 mg a.i./slug or more
  killing of slugs (in words): highly effective at killing slugs
